From article PMC9482650, “Quantitative fragmentomics allow affinity mapping of interactomes” (Nature Communications, 2022) come the findings set out here.

Read-outs that look alike come from different tables or passages of the source. Primed or numbered codes have the meaning given here. Ends that are not written are not given here. * marks the point of attachment. Biotin = O=C1N[C@H]2[C@H](CS[C@H]2CCCCC(=O)*)N1; ttds″ = trioxatridecan-succinamic acid linker

In one test the target is T1, TX1BP3 PDZ (Homo sapiens, UniProt O14907).
T1 sequence (O14907 15-112 limits assumed): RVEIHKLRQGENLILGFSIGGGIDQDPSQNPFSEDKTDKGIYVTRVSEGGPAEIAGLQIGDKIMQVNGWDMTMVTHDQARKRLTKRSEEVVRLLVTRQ
Nature of the test: Holdup assay. It is filed as binding.

The next test deals with SCRIB_1 PDZ (Homo sapiens, UniProt Q14160). The experiment in a line: Holdup assay. It is filed as binding.
Chain of SCRIB_1 PDZ (Q14160 728-815 limits assumed): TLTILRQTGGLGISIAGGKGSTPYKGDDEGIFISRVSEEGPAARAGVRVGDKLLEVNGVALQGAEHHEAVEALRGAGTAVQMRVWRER
The next test addresses DLG1_1 PDZ (Homo sapiens, UniProt Q12959). Nature of the test: Holdup assay. It is filed as binding.
The next test concerns the target DLG1_2 PDZ (Homo sapiens, UniProt Q12959). Nature of the test: Holdup assay. It counts as binding.
The target of the next test is SNX27 PDZ (Homo sapiens, UniProt Q96L92). Nature of the test: Holdup assay. It is filed as binding.
The next test concerns the target T2, SCRIB2 PDZ (Homo sapiens, UniProt Q14160).
T2 sequence (Q14160 862-950 limits assumed): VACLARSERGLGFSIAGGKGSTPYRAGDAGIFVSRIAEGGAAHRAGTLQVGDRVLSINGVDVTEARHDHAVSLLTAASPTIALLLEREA
The experiment in a line: Holdup assay. It is filed as binding.

For the next test, the system named is MAGI1. The experiment in a line: PBM-AP-MS from Jurkat extract. It is filed as binding, Homo sapiens. The settings on record: Jurkat extract; prey MAGI1 (Q96QZ7); PBM bait vs biotin control. The procedure: (§1) For PBM-AP-MS experiments, 30 μl streptavidin resin was mixed with biotin or peptide at 50–60 μM concentration in 6–6.5 resin volume for 60 min to achieve resin saturation. For PDZ-AP-MS experiments, 30 μl streptavidin resin was mixed with biotinylated MBP or MBP-PDZ at 40-50 μM concentration in >1000× resin volume for 60 min to achieve resin saturation. After saturation, resins were washed a single time (ten resin volume, holdup buffer), and were depleted with biotin (1 mM biotin, 5–10 resin volume, 10 min). Finally, resins were washed two times. 0.5 ml 2 mg/ml cell lysate was added to the dry resin (1 mg total input) and were incubated at 4 °C for 2 h. Then, the beads were washed three times with 10 resin volume buffer containing: 50 mM TRIS pH 8.5, 150 mM NaCl, 1% TritonX-100, 10× complete EDTA-free protease inhibitor cocktail, 2 mM EDTA, 1 mM TCEP. Then, the beads were washed two times with ten resin volume buffer containing: 50 mM TRIS pH 8.5, 150 mM NaCl, 1 mM TCEP. Finally, captured protein was eluted from the resin in two steps and the eluted fractions were pooled. For each elution the beads were incubated for 30 min with three resin volume buffer containing: 20 mM TRIS pH8.5, 100 mM NaCl, 500 μM TCEP, 8 M Urea. Between each step, the beads were separated by mild centrifugation and the supernatant was removed by gentle pipetting.
(§2) Proteins were identified by database searching using SequestHT (Thermo Fisher Scientific) with Proteome Discoverer 2.4 software (PD2.4, Thermo Fisher Scientific) on human FASTA database downloaded from SwissProt (reviewed, release 2020_11_27, 20304 entries, https://www.uniprot.org/). Precursor and fragment mass tolerances were set at 7 ppm and 0.6 Da respectively, and up to two missed cleavages were allowed. Oxidation (M, +15.995 Da) was set as variable modification, and Carbamidomethylation (C, +57.021 Da) as fixed modification. Peptides and proteins were filtered with a false discovery rate at 1%. Label-free quantification was based on the extracted ion chromatography intensity of the peptides. All samples were measured in technical triplicates. The measured extracted ion chromatogram (XIC) intensities were normalized based on median intensities of the entire dataset to correct minor loading differences. For statistical tests and enrichment calculations, not detectable intensity values were treated with an imputation method, where the missing values were replaced by random values similar to the 10% of the lowest intensity values present in the entire dataset. Unpaired two-tailed T-test, assuming equal variance, were performed on obtained log2 XIC intensities. The detection threshold for enriched proteins in AP-MS experiments were analyzed above twofold enrichment with <0.01 P value. Then, proteins with PDZ-domains or PBMs were extracted from the list of enriched proteins. In case only a specific isoform of the detected protein contains a PBM, the identified peptide fragments were manually checked to check which isoform(s) were most likely detected. All raw LC-MS/MS data (from 165 runs) have been deposited to the ProteomeXchange via the PRIDE database with identifier PXD027743.

The subject of test [1] is SCRIB. Nature of the test: PBM-AP-MS from Jurkat extract. It counts as binding, Homo sapiens. The conditions noted are these: Jurkat extract; prey SCRIB (Q14160); PBM bait vs biotin control. Here is the method:
as §1, §2

Test [2] deals with LIN7C. The experiment in a line: PBM-AP-MS from Jurkat extract. It is filed as binding, Homo sapiens. The settings on record: Jurkat extract; prey LIN7C (Q9NUP9); PBM bait vs biotin control. The procedure: as §1, §2
Another test concerns DLG1. The experiment in a line: PBM-AP-MS from Jurkat extract. It counts as binding, Homo sapiens. The settings on record: Jurkat extract; prey DLG1 (Q12959); PBM bait vs biotin control. Here is the method: as §1, §2
Test [3] concerns SCRIB. The experiment in a line: PBM-AP-MS from HeLa extract. It is filed as binding, Homo sapiens. The settings on record: prey SCRIB (Q14160), PBM bait vs biotin control.
The next test deals with CPVL. The experiment in a line: PBM-AP-MS from HeLa extract. The conditions noted are these: prey CPVL (Q9H3G5), PBM bait vs biotin control. It counts as binding, Homo sapiens.
A further test deals with KRT83. The experiment in a line: PBM-AP-MS from HeLa extract. It is filed as binding, Homo sapiens. The settings on record: prey KRT83 (P78385), PBM bait vs biotin control. The source says:
(§3) Supplement 41467_2022_33018_MOESM5_ESM.xlsx, sheet "HeLa HPV82-E6" | column: -LOG(P-Value); Difference log2; Ratio HPV82E6/Biot

Another test concerns MPP7. Nature of the test: PBM-AP-MS from HeLa extract. The conditions noted are these: prey MPP7 (Q5T2T1), PBM bait vs biotin control. It is filed as binding, Homo sapiens.
Excerpt: as §3

For another test, the system named is LGALS7. Nature of the test: PBM-AP-MS from Jurkat extract. It is filed as binding, Homo sapiens. The settings on record: prey LGALS7 (P47929), PBM bait vs biotin control. The source says:
Supplement 41467_2022_33018_MOESM5_ESM.xlsx, sheet "Jurkat HPV82-E6" | column: -LOG(P-Value); Difference log2; Ratio HPV82/biot

Test [4] relates to LIN7C. Nature of the test: PBM-AP-MS from HeLa extract. It is filed as binding, Homo sapiens. The settings on record: prey LIN7C (Q9NUP9), PBM bait vs biotin control.
The mark [5] stands for this setting: PBM motif of the named protein vs TX1BP3 PDZ, read-out: pKd values – domain-motif, TX1BP3 (converted).
The mark [6] stands for this setting: PBM motif of the named protein vs SCRIB_1 PDZ, read-out: pKd values – domain-motif, SCRIB_1 (converted).
The mark [7] stands for this setting: PBM motif of the named protein vs DLG1_1 PDZ, read-out: pKd values – domain-motif, DLG1_1 (converted).
[8] abbreviates: PBM motif of the named protein vs DLG1_2 PDZ, read-out: pKd values – domain-motif, DLG1_2 (converted).
The mark [9] stands for this setting: PBM motif of the named protein vs SCRIB_2 PDZ, read-out: pKd values – domain-motif, SCRIB_2 (converted).
Setting [10] is: holdup affinity of the PBM peptide of the named protein, sheet PBMcomplexome, lower sub-table, 3.5 appears to be the floor for no detectable binding, read-out: affinity of PBM to TX1BP3 (pKd) (converted).
The mark [11] stands for this setting: holdup affinity of the PBM peptide of the named protein, sheet PBMcomplexome, lower sub-table, 3.5 appears to be the floor for no detectable binding, read-out: affinity of PBM to SCRIB_2 (pKd) (converted).
Setting [12] is: holdup affinity of the PBM peptide of the named protein, sheet PBMcomplexome, lower sub-table, 3.5 appears to be the floor for no detectable binding, read-out: affinity of PBM to SCRIB_1 (pKd) (converted).
The mark [13] stands for this setting: holdup affinity of the PBM peptide of the named protein, sheet PBMcomplexome, lower sub-table, 3.5 appears to be the floor for no detectable binding, read-out: affinity of PBM to DLG1_2 (pKd) (converted).
[14] abbreviates: holdup affinity of the PBM peptide of the named protein, sheet PBMcomplexome, lower sub-table.

With PELESKESVL [SLC1A4], the Kd at TX1BP3 PDZ (setting [5]) is 79.4 µM; on SCRIB_1 PDZ (setting [6]), 66.1 µM; on DLG1_1 PDZ (setting [7]), 309 µM; at DLG1_2 PDZ (setting [8]), 91.2 µM; on SNX27 PDZ it was 3.72 µM.
For the compound LESTTVGTSV [KARS1], the Kd at TX1BP3 PDZ (setting [5]) was 251 µM; at SCRIB2 PDZ (setting [9]), 34.7 µM; on SCRIB_1 PDZ (setting [6]) it was 155 µM; on DLG1_1 PDZ (setting [7]) it was 53.7 µM; on DLG1_2 PDZ (setting [8]) it was 45.7 µM; at SNX27 PDZ, 35.5 µM.
With KIEDVEITLV [FCHSD2], the Kd was 105 µM at TX1BP3 PDZ (setting [5]); 158 µM on SCRIB_1 PDZ (setting [6]); 162 µM at DLG1_1 PDZ (setting [7]); 50.1 µM at DLG1_2 PDZ (setting [8]); 9.77 µM at SNX27 PDZ.
For KQVVPFSSSV [GDA], in that order: 49 µM, 309 µM, 129 µM, 41.7 µM and 295 µM.
Taken in the same sequence, the figures for LCALPKVTTV [AGMAT] were 85.1 µM, 40.7 µM, 10.7 µM, 1.35 µM and 37.2 µM.
As for TESNLQTSSC [CGN], the Kd on SNX27 PDZ was 22.4 µM.
With PKRPFVESNV [TANC2], the Kd on TX1BP3 PDZ (setting [10]) was 1.26 µM; on SCRIB2 PDZ (setting [11]), 25.7 µM; at SCRIB_1 PDZ (setting [12]), 17.8 µM; at DLG1_1 PDZ (holdup affinity of the PBM peptide of the named protein, sheet PBMcomplexome, lower sub-table, 3.5 appears to be the floor for no detectable binding, read-out: affinity of PBM to DLG1_1 (pKd) (converted)) it was 49 µM; at DLG1_2 PDZ (setting [13]), 22.4 µM; on SNX27 PDZ (setting [14]), 15.8 µM.
IKAIVDLTGL [TRAF2] showed a Kd on SNX27 PDZ (setting [14]) of 309 µM.
For PRVKPQRSKV [PPP1R13L], the Kd on TX1BP3 PDZ (setting [5]) was 151 µM.
As to HPV82-E6 ({Biotin-ttds″}-PPRQRSETQV), the “Difference log2” value with MAGI1 amounted to 5.746; in the test on SCRIB [1], 7.318; in the test on LIN7C [2] it was 5.109; in the test on DLG1, 8.838; in the test with SCRIB [3], 7.349; with CPVL it was 3.939. In addition, the “Difference log2” value with KRT83 came out at 3.605; in the test on MPP7, 3.556; in the test with LGALS7, 4.513; in the test on LIN7C [4], 7.066. Further, the Ratio bait/biot with MAGI1 amounted to 53.6695; with SCRIB [1], 159.61; with LIN7C [2] it was 34.5003; in the test with DLG1, 457.64; with SCRIB [3], 163.074; in the test with CPVL, 15.3339. Moreover, the “Ratio bait/biot” value in the test on KRT83 was 12.1643; with MPP7, 11.7654; in the test with LGALS7, 22.8362; in the test with LIN7C [4], 134.006.
`CC(C)C[C@H](NC(=O)[C@H](CC(=O)O)NC(=O)[C@@H](NC(=O)[C@H](CC(=O)O)NC(=O)[C@H](Cc1ccccc1)NC(=O)[C@H](Cc1c[nH]c2ccccc12)NC(=O)[C@H](C)NC(=O)[C@H](CC(C)C)NC(=O)[C@H](CCC(N)=O)NC(=O)[C@@H](N)CC(N)=O)[C@@H](C)O)C(=O)O` [CTNNB1]: the Kd at TX1BP3 PDZ (setting [5]) is 1.02 µM; on SCRIB2 PDZ (setting [9]) it was 269 µM; at SCRIB_1 PDZ (setting [6]), 13.8 µM; at SNX27 PDZ, 12.3 µM.
As to GYDWGPATDL [TJP3/ZO3], the Kd at TX1BP3 PDZ (setting [10]) was 40.7 µM; on SCRIB2 PDZ (setting [11]), 166 µM; on SCRIB_1 PDZ (setting [12]) it was 174 µM; at DLG1_2 PDZ (setting [13]), 245 µM; at SNX27 PDZ (setting [14]), 229 µM.
Regarding PKRSFIESNV [TANC1], the Kd on TX1BP3 PDZ (setting [5]) is 1.91 µM; at SCRIB2 PDZ (setting [9]), 13.2 µM; on SCRIB_1 PDZ (setting [6]), 6.31 µM; at DLG1_1 PDZ (setting [7]), 20.4 µM; at DLG1_2 PDZ (setting [8]) it was 11 µM; at SNX27 PDZ, 3.09 µM.
